A word on the inhibition: it is the share of the control response that was lost under treatment.

T1 sequence (O00329 whole entry): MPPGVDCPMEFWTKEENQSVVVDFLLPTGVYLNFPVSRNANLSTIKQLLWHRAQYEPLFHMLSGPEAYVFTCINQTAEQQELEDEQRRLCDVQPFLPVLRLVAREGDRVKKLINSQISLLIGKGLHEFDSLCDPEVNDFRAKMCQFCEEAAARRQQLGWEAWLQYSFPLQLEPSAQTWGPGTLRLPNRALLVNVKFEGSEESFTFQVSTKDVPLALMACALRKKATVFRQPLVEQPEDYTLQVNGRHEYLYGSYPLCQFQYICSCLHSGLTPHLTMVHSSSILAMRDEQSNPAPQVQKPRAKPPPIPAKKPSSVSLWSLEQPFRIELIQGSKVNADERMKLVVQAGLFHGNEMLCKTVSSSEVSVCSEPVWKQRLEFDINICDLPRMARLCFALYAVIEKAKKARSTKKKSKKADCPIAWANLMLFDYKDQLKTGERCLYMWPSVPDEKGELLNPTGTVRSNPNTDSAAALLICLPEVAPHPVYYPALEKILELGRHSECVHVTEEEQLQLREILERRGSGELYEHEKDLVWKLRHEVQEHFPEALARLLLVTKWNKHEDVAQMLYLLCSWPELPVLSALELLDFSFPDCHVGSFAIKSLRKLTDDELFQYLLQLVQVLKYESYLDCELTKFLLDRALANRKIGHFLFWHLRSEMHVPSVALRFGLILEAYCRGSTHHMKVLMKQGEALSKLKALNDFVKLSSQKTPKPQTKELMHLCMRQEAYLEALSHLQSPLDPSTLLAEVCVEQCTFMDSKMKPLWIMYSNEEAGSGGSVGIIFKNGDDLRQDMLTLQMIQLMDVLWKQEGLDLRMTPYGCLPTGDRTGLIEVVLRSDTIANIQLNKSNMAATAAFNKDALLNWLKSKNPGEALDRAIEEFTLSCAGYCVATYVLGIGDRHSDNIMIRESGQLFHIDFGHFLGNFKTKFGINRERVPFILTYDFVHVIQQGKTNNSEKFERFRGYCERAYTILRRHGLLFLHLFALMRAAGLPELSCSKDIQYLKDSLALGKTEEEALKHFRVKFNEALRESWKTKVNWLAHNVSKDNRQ
T1 sequence (P27986 whole entry partner): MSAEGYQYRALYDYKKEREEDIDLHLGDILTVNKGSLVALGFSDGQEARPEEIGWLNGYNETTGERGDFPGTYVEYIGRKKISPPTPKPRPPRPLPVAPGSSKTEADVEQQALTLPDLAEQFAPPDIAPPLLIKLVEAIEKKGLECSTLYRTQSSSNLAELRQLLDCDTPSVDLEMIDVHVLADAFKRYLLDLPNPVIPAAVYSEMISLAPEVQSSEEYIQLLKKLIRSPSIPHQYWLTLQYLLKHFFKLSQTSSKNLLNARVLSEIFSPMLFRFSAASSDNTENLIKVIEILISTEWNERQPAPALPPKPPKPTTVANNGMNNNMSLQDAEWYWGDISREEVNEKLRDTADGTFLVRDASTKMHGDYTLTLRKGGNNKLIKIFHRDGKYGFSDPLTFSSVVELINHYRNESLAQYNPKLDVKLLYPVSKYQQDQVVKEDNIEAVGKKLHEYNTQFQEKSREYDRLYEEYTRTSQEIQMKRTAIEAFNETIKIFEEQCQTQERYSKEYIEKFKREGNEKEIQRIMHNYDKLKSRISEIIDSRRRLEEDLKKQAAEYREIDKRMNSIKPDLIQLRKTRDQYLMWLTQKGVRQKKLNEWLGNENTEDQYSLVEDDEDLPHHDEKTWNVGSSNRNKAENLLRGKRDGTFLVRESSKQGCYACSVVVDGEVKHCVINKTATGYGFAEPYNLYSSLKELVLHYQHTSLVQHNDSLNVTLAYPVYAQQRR

The subject of one assay is basophils. Description: Basophil histamine release assay. The format is cell-based. Particulars: highest concentration (10,000 nM). Here is the method: Assessment of the effect of a compound of the invention on basophil function is tested using a conventional histamine release assay, generally in accordance with the method described in Miura et al., J Immunol, 162:4198-206 (1999). Briefly, enriched basophils are preincubated with test compounds at several concentrations from 0.1 nM to 1,000 nM for 10 min at 37° C. Then, polyclonal goat antihuman IgE (0.1 μg/mL) or fMLP is added, and allowed to incubate for an additional 30 min Histamine released into the supernatant is measured using an automated fluorometric technique.
Turning to `O=c1cc(N2CCOCC2)oc2c(-c3ccccc3)cccc12` [LY294002], the inhibition at 10 µM was approximately 100%.

A further assay has as its target T1, PI3Kδ (Homo sapiens, UniProt O00329).
T1 construct: FLAG; His tag (vector pFastbac HTb); made in house; host or cells: Sf21 insect cells (baculovirus, BAC-TO-BAC HT)
Description: PI3Kδ biochemical assay (HTS and selectivity assay protocol, [32P]ATP / PIP2 liposomes). The conditions noted are these: Table 1, in vitro activity data for selected compounds; read-out: In Vitro I-50. Here is the method:
The 3× substrate for the HTS contained 0.6 mM Na2ATP, 0.10 mCi/mL γ-[^32P]ATP (NEN, Pittsburgh, Pa.), 6 μM PIP2/PS liposomes (Avanti Polar Lipids, Inc., […].), in 20 mM HEPES, pH 7.4.
Subsequent selectivity assays were done similarly using the same 3× substrate stocks except they contained 0.05 mCi/mL γ[^32P]ATP and 3 mM PIP2. Subsequent selectivity assays also used the same 3× enzyme stocks, except they now contained 3 nM of any given PI3K isoform.
For all selectivity assays, the test compounds were weighed out and dissolved into 10-50 mM stocks in 100% DMSO (depending on their respective solubilities) and stored at −20° C. Compounds were thawed (to room temperature or 37° C.), diluted to 300 μM in water from which a 3-fold dilution series into water was done. From these dilutions, 20 μL was added into the assay wells alongside water blanks used for the enzyme (positive) control and the no enzyme (background) control.
`CC(c1nc2c(c(Br)nn2C)c(=O)n1-c1ccccc1)n1cnc2c(N)ncnc21` (stereo not drawn) [Compound 1, 6-[1-(6-Amino-purin-9-yl)-ethyl]-3-bromo-1-methyl-5-phenyl-1,5-dihydro-pyrazolo[3,4-d]pyrimidin-4-one]: the IC50 was 665 nM.
Same read-out and setting: next, `CC(Sc1ncnc2[nH]cnc12)c1nc2c(c(Br)nn2C)c(=O)n1-c1ccccc1` (stereo not drawn) [Compound 2, 3-Bromo-1-methyl-5-phenyl-6-[1-(9H-purin-6-ylsulfanyl)-ethyl]-1,5-dihydro-pyrazolo[3,4-d]pyrimidin-4-one]: 6000 nM; `Cc1noc2nc(CSc3ncnc4[nH]cnc34)n(-c3ccccc3)c(=O)c12` [Compound 4, 3-Methyl-5-phenyl-6-(9H-purin-6-ylsulfanylmethyl)-5H-isoxazolo[5,4-d]pyrimidin-4-one]: 1200 nM; `Cc1noc2nc(Cn3cnc4c(N)ncnc43)n(-c3ccccc3)c(=O)c12` [Compound 5, 6-(6-Amino-purin-9-ylmethyl)-3-methyl-5-phenyl-5H-is oxazolo[5,4-d]pyrimidin-4-one]: 6400 nM.
Regarding `CC(c1nc2cccnc2c(=O)n1-c1ccccc1)n1cnc2c(N)ncnc21` (stereo not drawn) [Compound 11], the IC50 came to 665 nM.

For the origin of these results see US20110021541A1, “INHIBITORS OF HUMAN PHOSPHATIDYL-INOSITOL 3-KINASE DELTA” (priority 2007, published 2011).
